Experimental data taken from patent US20250154180A1, “CRK-LIKE (CRKL) ADAPTOR PROTEIN INHIBITORS AND METHODS OF MAKING AND USING THE SAME” (Rutgers, The State University of New Jersey, priority 2022, published 2025).
Entries after “also recorded” stand apart in the source; their conditions may differ. Structures can show the parent of a compound that is named as a salt. Where two headings read alike, the source gives them in different places.

Tests used:
PDAC cells BXPC3 = assay: MTT assay, BXPC3; type: cell-based; settings: 5 uM
Experimental: (§1) MTT assay—The MTT assay was used to detect cell proliferation. Briefly, cells were plated in a 96-well plate at a density of 50,000 cells/well in 200 μl of culture medium with candidate drugs to be tested (DMSO as a negative control). The treated cells were incubated for four hours a 37° C. with a 5% CO2 incubator to allow dark crystals to form at the bottom of the wells. After culturing for 48 hours, […] of MTT reagent was added to each well and mixed gently for one minute. After aspirating the culture medium from each well, 100 μl of crystal dissolving solution was added to each well and incubated for 10 minutes at RT. The signal was quantified by measuring the absorbance in each sample at 570 nm using a microplate reader.
(§2) Compound II is referred to as “NC5-SO2F” in FIGS. 7A-7C.

MDA-MB-231 cells [1] = assay: MTT proliferation assay, MDA-MB-231; type: cell-based
Experimental: as §1, §2
Cell proliferation was first determined by MTT assay as confirmation. […] CrkL is known to mediate the activation of both Raf/ERK and PI3K pathways. So, proteins that relate to these two pathways were utilized.

BXPC3 cells [2] = assay: Propidium iodide staining, BXPC3; type: cell-based; settings: various concentrations
Description: as §2

Sk-Hep1 tumor = assay: HCC Sk-Hep1 xenograft model; type: in vivo, NSG mice; settings: four-group study, 5.0 μg/g oral gavage
Description: To further test whether the tumor growth inhibition effect of NC5 applied to other solid tumors, the HCC-Sk-Hep1cell line and PDAC-BXPC3 cell line xenograft models were used. Subcutaneous injection of 1.5×10^6 SK-Hep1 or BXPC3 cells in NSG mice, Six-ten days after tumor cell injection, the palpable tumor in NSG mice was confirmed.
To test the effects of the disclosed compounds on the xenograft mouse models, the HCC-Sk-Hep1 cell line xenograft model in NSG mice and 4T1-Luc orthotopic syngeneic breast tumor model in Balb/c mice was used. After confirming the palpable tumor in NSG or Balb/c mice. […] Compound III is referred to as “NC5-140-1” and Compound I is referred to as “NC5-140-2” in FIGS. 11A-11C.

Sk-Hep1 cells = assay: Growth inhibition of Sk-Hep1 cells (cell culture images); type: cell-based; settings: 5 μM, 24 hours
Thermodynamic solubility = type: physicochemical; settings: thermodynamic from solid
Experimental: In this example, solubility measurement assays were performed using a phosphate buffer (also referred to as “PB”) system and a water system to evaluate thermodynamic solubility. The PB system was at a pH of 7.4 to mimic in vivo environments. For the PB system, the values were determined to be NC5: Thermodynamic Solubility pH=7.4<0.42 μg/mL; Compound III: Thermodynamic Solubility pH=7.4<0.48 μg/mL; and Compound I: Thermodynamic Solubility pH=7.4<0.48 μg/mL. Results for the water assay were as follows: NC5: Thermodynamic Solubility Water<0.42 μg/mL; Compound III: Thermodynamic Solubility Water<0.48 μg/mL; and Compound I: Thermodynamic Solubility Water<0.48 μg/mL.

MDA-MB-231 cells [3] = assay: XTT cell viability, MDA-MB-231; type: cell-based; settings: 24 and 48 hours
Experimental: (§3) FIGS. 8A-8C show results using MDA-MB-231 cells (FIG. 8A) or BXPC3 cells (FIG. 8B), wherein the cells were treated with 5 μM of NC5, Compound III (referred to as “NC5-140-1” in FIGS. 8A-8C), and Compound I (referred to as “NC5-140-2” in FIGS. 8A-8C) for 24-48 hours, wherein the XTT assay was used to determine cell viability. The symbol indicates the significance of NC5 vs. Compounds I and/or III; *p<0.05. Data represent mean±SEM.
(§4) Compound embodiments, compound III and compound I, were also made and evaluated. TNBC cells and PDAC cells were treated with a serial dose of original NC5 and modified NC5 derivatives for 24 and 48 hours. The cell viability will be measured by XTT assay. […] Compound III is referred to as “NC5-140-1” and Compound I is referred to as “NC5-140-2” in FIGS. 8A-8C.

BXPC3 cells [4] = assay: XTT cell viability, BXPC3; type: cell-based; settings: 24 and 48 hours
Experimental: as §3, §4

[5] = tested on: CrkL (phosphorylation at Y207 by Ab1); assay: AlphaScreen of Ab1 phosphorylation of CrkL at Y207; type: biochemical; settings: compared to DMSO; positive control in the five libraries
[6] = tested on: IL-2 production from human PBMCs; assay: IL-2 ELISA, PBMCs; type: cell-based
Experimental: IL-2 ELISA—IL-2 in vitro enzyme-linked immunosorbent assay (ELISA) was used to measure human IL-2 productions. This assay was conducted per the user manual from the kit. In brief, human PBMCs were cultured in R10 medium with 0.5 μg/ml PHA. Then, 100 μl of the standard and sample was added to each well and incubated at 4° C. overnight. A prepared biotin antibody (100 μl) was added to each well and incubated for 1 hour at room temperature. Then, 100 μl prepared streptavidin solution was added and incubated for 45 minutes at room temperature. TMB one-step substrate reagent (100 μl) was then added to each well and incubated for 30 minutes at room temperature. Stop solution (50 μl) was then added to each well, and the results were quantified at 450 nm by Infinite M1000 Pro Plate Reader (Tecan, Switzerland) immediately.
Previous studies have shown that phosphorylated CrkL inhibits immune cell functions. It was then evaluated whether a pCrkL inhibitor could restore immune cell functions. To test this, the production of IL-2 from human PBMCs treated with different concentrations of Pomiferin was quantitated. Phytohemagglutinin (PHA) was used to stimulate the secretion of IL-2 as a positive control group. […] Similar results were obtained from the third donor (FIG. 5B, lower panel).

[7] = Mouse toxicity assays (serum ALT, AST, BUN, creatinine); type: in vivo, mice; settings: at the indicated dosages
Experimental: Three mice were treated in each group. Blood samples were collected from every mouse in pre-treatment and post-treatment (20 days), and serum was obtained for alanine aminotransferase (ALT, SGPT, FIG. 12A), aspartate aminotransferase (AST, SGOT, FIG. 12B), blood urea nitrogen (BUN, FIG. 12C), and creatinine (FIG. 12D) tests to monitor liver and kidney toxicity. The normal Reference Ranges for ALT is 17-77 IU/L; AST is 54-298 IU/L; BUN is 18.5-33.3 mg/dL; Cr is 0-0.40 mg/dL.
Mouse toxicity assays—Blood was collected from the submandibular facial vein following IACUC guidelines (CMP, Houston Methodist Research Institute and Rutgers University) before and 20-day after the drug treatment. The Department of Veterinary Medicine & Surgery, MD Anderson Cancer Center, performed the clinical biochemistry and pharmacokinetics tests. Blood serum chemistry analysis included alanine transaminase (ALT), aspartate transaminase (AST), blood urea nitrogen (BUN), and creatinine level measurements.
Alanine aminotransferase (ALT, SGPT), aspartate aminotransferase (AST, SGOT), blood urea nitrogen (BUN), and creatinine levels were examined to determine liver and kidney toxicity of Pomiferin treatments in vivo. […] Nevertheless, these changes have no physiological significance because ALT, AST and BUN levels in all mice were within normal mouse reference ranges. […]

CrkL = CrkL (Homo sapiens, UniProt P46109); type: biochemical
Description: Single-molecule Fluorescence Resonance Energy Transfer (smFRET)—Single-molecule Fluorescence Resonance Energy Transfer (smFRET) was applied to monitor conformations of single molecules. CrkL has two cysteines (a relatively rare amino acid), one in its SH2 and another in SH3C domains. CrkL was mixed with a mixture of equal amounts of Alexa555-maleimide and Alexa647-maleimide (Invitrogen, USA) (10× over protein concentration) to randomly label the two cysteines. The labeled protein was purified from an unreacted dye by gel filtration. Molecules with exactly one donor and acceptor are identified in single-molecule data analysis and used for further analysis. […] The FRET change between non-phosphorylated CrkL and phosphorylated CrkL was measured. The dye-labeled protein was used in in vitro kinase assays with different drugs treatments as described above. smFRET measurements were performed with a prism-type total internal refection microscope (TIRF) where FRET efficiency is calculated from measured donor and acceptor intensities (Id and Ia, respectively) by FRET=Ia/(Id+Ia), as described previously. To surface immobilize 6×His tagged CrkL, the protein was added to the biotinylated 6×His antibody (Thermo Scientific Cat #: MA1-80087) bound to streptavidin, which was adsorbed to a quartz slide. A lipid bilayer was used to passivate the quartz surface. Phosphorylation was performed on the immobilized Crk in situ.
In intramolecular smFRET, non-radiative energy transfer occurs when two fluorophores attached to different parts of one molecule move close together. […] A cysteine-maleimide-based chemistry was used to label both CrkL and mutant (non-phosphorylatable) CrkL-Y207F. CrkL has a cysteine (a relatively rare amino acid) in its SH2 (labeled with AlexaFluor555) and SH3C (labeled with AlexaFluor647). […] Western Blot (WB) and immunoprecipitation (IP) was used to verify that labeled proteins retain the same gross functional properties as wild-type CrkL (e.g., are phosphorylatable and capable of binding SH2 and SH3 ligands). Briefly, site-specific labeled CrkL was mixed with Ab1 in the presence of Mg^2+ and ATP. A single AlphaScreen-identified candidate inhibitor was then added per assay.

Sequence of CrkL (P46109 whole entry, the tested form may be a part): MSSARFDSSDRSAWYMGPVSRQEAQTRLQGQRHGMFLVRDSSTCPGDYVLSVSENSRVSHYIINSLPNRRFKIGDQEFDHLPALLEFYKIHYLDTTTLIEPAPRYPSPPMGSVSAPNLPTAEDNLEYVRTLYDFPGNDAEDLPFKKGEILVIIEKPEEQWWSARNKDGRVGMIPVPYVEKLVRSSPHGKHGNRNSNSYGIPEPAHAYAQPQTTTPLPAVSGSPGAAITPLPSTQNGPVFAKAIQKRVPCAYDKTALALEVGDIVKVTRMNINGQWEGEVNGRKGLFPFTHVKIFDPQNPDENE

In the case of `CC(C)=CCc1c2c(c3occ(-c4ccc5c(c4)OS(=O)(=O)O5)c(=O)c3c1OS(=O)(=O)F)C=CC(C)(C)O2` [Compound II], the “killing effect / toxicity compared with NC5 (MTT)” value (PDAC cells BXPC3) is reported as “stronger killing effect than NC5; also recorded: increased toxicity”, the “toxicity compared with NC5 (MTT viability)” value (MDA-MB-231 cells [1]; 5 μM) is reported as “increased toxicity” and the “killing effect compared with NC5 (MTT)” value (MDA-MB-231 cells [1]; different concentrations) is reported as “comparable killing effect as NC5”. For the same compound, the “killing effect by propidium iodide staining” value (BXPC3 cells [2]) was “killing effect was further confirmed”.

In the case of `CC(C)=CCc1c2c(c(O)c3c(=O)c(-c4ccc5c(c4)OS(=O)(=O)O5)coc13)C=CC(C)(C)O2` [Compound I], the tumor growth (Sk-Hep1 tumor) is reported as “inhibit tumor growth”, the median survival (Sk-Hep1 tumor; vehicle 26 days) is reported as 28.5 days and the “toxic effect compared with NC5 (growth inhibition)” value (Sk-Hep1 cells) is reported as “better toxic effect than NC5”. The solubility thermodynamic (Thermodynamic solubility; aqueous buffer, phosphate buffer (PB) system, pH 7.4, read-out: Thermodynamic Solubility pH=7.4) was < 0.48 µg/mL, the solubility thermodynamic (Thermodynamic solubility; water system, read-out: Thermodynamic Solubility Water) was < 0.48 µg/mL and the “toxic effect compared with NC5 (XTT viability)” value (MDA-MB-231 cells [3]) was “comparable toxic effect as NC5”. For the same compound, the “toxic effect compared with NC5 (XTT viability)” value (BXPC3 cells [4]) was “better toxic effect than NC5”.

With `Cc1ccc(NC(=O)c2ccc(CN3CCN(C)CC3)cc2)cc1Nc1nccc(-c2cccnc2)n1` [Gleevec, imatinib mesylate] the Alpha signal decrease [5] was 80-90%, the IL2 secretion ([6]; PBMCs from three healthy donors, treated overnight) was “did not inhibit IL2 secretion” and the IL-2 production ([6]; first donor, compared to DMSO) was “decreased IL-2 production”. For the same compound, the “damage to the liver and kidneys” value [7] was “little to no damage to the liver and kidneys”, the “inhibition of the higher FRET caused by Ab1 (pCrkL)” value (CrkL; CrkL + Ab1, Mg2+ and ATP) was “inhibited” and the FRET signal (CrkL; CrkL about 0.4, CrkL+Ab1 about 0.6) was 0.4.
